Results reported in the NIST ThermoML archive (doi:10.1016/j.fluid.2015.10.026).
Numbers after ± are expanded uncertainties.

Details: Liquid, Brillouin light scattering

CCC(C)(C)OC [2-methoxy-2-methylbutane]
Details | speed of sound [m/s]
293.15 K, 0 kPa | 1133.3 ± 5.8
293.15 K, 1000 kPa | 1139.7 ± 5.8
293.15 K, 2500 kPa | 1149 ± 5.8
293.15 K, 4000 kPa | 1158.3 ± 5.9
293.15 K, 5500 kPa | 1167.7 ± 5.9
293.15 K, 7000 kPa | 1177.2 ± 6
293.15 K, 8500 kPa | 1186.7 ± 6
293.15 K, 10000 kPa | 1196.4 ± 6.1
303.15 K, 10 kPa | 1089.4 ± 6.2
303.15 K, 1000 kPa | 1099.1 ± 5.6
303.15 K, 2500 kPa | 1109.3 ± 5.6
303.15 K, 4000 kPa | 1119.3 ± 5.7
303.15 K, 5500 kPa | 1129.3 ± 5.7
303.15 K, 7000 kPa | 1139.3 ± 5.8
303.15 K, 8500 kPa | 1149.2 ± 5.8
303.15 K, 10000 kPa | 1159 ± 5.9
313.15 K, 10 kPa | 1046.4 ± 5.3
313.15 K, 1000 kPa | 1058.3 ± 5.4
313.15 K, 2500 kPa | 1069.4 ± 5.5
313.15 K, 4000 kPa | 1080.3 ± 5.5
313.15 K, 5500 kPa | 1091 ± 5.5
313.15 K, 7000 kPa | 1101.4 ± 5.6
313.15 K, 8500 kPa | 1111.7 ± 5.7
313.15 K, 10000 kPa | 1121.8 ± 5.7
323.15 K, 20 kPa | 1004.2 ± 6.2
323.15 K, 1000 kPa | 1017.4 ± 5.2
323.15 K, 2500 kPa | 1029.4 ± 5.2
323.15 K, 4000 kPa | 1041.1 ± 5.3
323.15 K, 5500 kPa | 1052.5 ± 5.4
323.15 K, 7000 kPa | 1063.5 ± 5.4
323.15 K, 8500 kPa | 1074.2 ± 5.5
323.15 K, 10000 kPa | 1084.6 ± 5.5
333.15 K, 20 kPa | 962.62 ± 5.9
333.15 K, 1000 kPa | 976.26 ± 5
333.15 K, 2500 kPa | 989.25 ± 5.1
333.15 K, 4000 kPa | 1001.8 ± 5.1
333.15 K, 5500 kPa | 1013.9 ± 5.2
333.15 K, 7000 kPa | 1025.6 ± 5.2
333.15 K, 8500 kPa | 1036.8 ± 5.3
333.15 K, 10000 kPa | 1047.6 ± 5.3
343.15 K, 40 kPa | 921.56 ± 6
343.15 K, 1000 kPa | 934.97 ± 4.8
343.15 K, 2500 kPa | 948.94 ± 4.9
343.15 K, 4000 kPa | 962.37 ± 4.9
343.15 K, 5500 kPa | 975.26 ± 5
343.15 K, 7000 kPa | 987.61 ± 5.1
343.15 K, 8500 kPa | 999.41 ± 5.1
343.15 K, 10000 kPa | 1010.7 ± 5.2
353.15 K, 60 kPa | 880.86 ± 6.1
353.15 K, 1000 kPa | 893.5 ± 4.6
353.15 K, 2500 kPa | 908.48 ± 4.7
353.15 K, 4000 kPa | 922.83 ± 4.7
353.15 K, 5500 kPa | 936.54 ± 4.8
353.15 K, 7000 kPa | 949.61 ± 4.9
353.15 K, 8500 kPa | 962.05 ± 4.9
353.15 K, 10000 kPa | 973.86 ± 5
363.15 K, 90 kPa | 840.4 ± 5
363.15 K, 1000 kPa | 851.87 ± 4.4
363.15 K, 2500 kPa | 867.87 ± 4.5
363.15 K, 4000 kPa | 883.16 ± 4.5
363.15 K, 5500 kPa | 897.74 ± 4.6
363.15 K, 7000 kPa | 911.59 ± 4.7
363.15 K, 8500 kPa | 924.74 ± 4.8
363.15 K, 10000 kPa | 937.16 ± 4.8
373.15 K, 120 kPa | 800.06 ± 4.2
373.15 K, 1000 kPa | 810.06 ± 4.2
373.15 K, 2500 kPa | 827.11 ± 4.3
373.15 K, 4000 kPa | 843.38 ± 4.3
373.15 K, 5500 kPa | 858.86 ± 4.4
373.15 K, 7000 kPa | 873.55 ± 4.5
373.15 K, 8500 kPa | 887.46 ± 4.6
373.15 K, 10000 kPa | 900.58 ± 4.6
383.15 K, 160 kPa | 759.72 ± 4
383.15 K, 1000 kPa | 768.09 ± 4
383.15 K, 2500 kPa | 786.2 ± 4.1
383.15 K, 4000 kPa | 803.47 ± 4.2
383.15 K, 5500 kPa | 819.89 ± 4.2
383.15 K, 7000 kPa | 835.47 ± 4.3
383.15 K, 8500 kPa | 850.21 ± 4.4
383.15 K, 10000 kPa | 864.1 ± 4.5
393.15 K, 200 kPa | 719.27 ± 3.8
393.15 K, 1000 kPa | 725.95 ± 3.8
393.15 K, 2500 kPa | 745.14 ± 3.9
393.15 K, 4000 kPa | 763.44 ± 4
393.15 K, 5500 kPa | 780.85 ± 4
393.15 K, 7000 kPa | 797.37 ± 4.2
393.15 K, 8500 kPa | 813 ± 4.2
393.15 K, 10000 kPa | 827.74 ± 4.3
403.15 K, 240 kPa | 678.61 ± 3.6
403.15 K, 1000 kPa | 683.64 ± 3.6
403.15 K, 2500 kPa | 703.93 ± 3.7
403.15 K, 4000 kPa | 723.29 ± 3.8
403.15 K, 5500 kPa | 741.73 ± 3.9
403.15 K, 7000 kPa | 759.25 ± 4
403.15 K, 8500 kPa | 775.83 ± 4.1
403.15 K, 10000 kPa | 791.49 ± 4.1
413.15 K, 300 kPa | 637.63 ± 3.4
413.15 K, 1000 kPa | 641.15 ± 3.4
413.15 K, 2500 kPa | 662.56 ± 3.5
413.15 K, 4000 kPa | 683.02 ± 3.6
413.15 K, 5500 kPa | 702.53 ± 3.7
413.15 K, 7000 kPa | 721.09 ± 3.8
413.15 K, 8500 kPa | 738.7 ± 3.9
413.15 K, 10000 kPa | 755.35 ± 4
423.15 K, 360 kPa | 596.25 ± 3.2
423.15 K, 1000 kPa | 598.5 ± 3.2
423.15 K, 2500 kPa | 621.05 ± 3.3
423.15 K, 4000 kPa | 642.63 ± 3.4
423.15 K, 5500 kPa | 663.25 ± 3.5
423.15 K, 7000 kPa | 682.91 ± 3.6
423.15 K, 8500 kPa | 701.6 ± 3.7
423.15 K, 10000 kPa | 719.33 ± 3.8
433.15 K, 440 kPa | 554.37 ± 3.1
433.15 K, 1000 kPa | 555.68 ± 3
433.15 K, 2500 kPa | 579.38 ± 3.1
433.15 K, 4000 kPa | 602.12 ± 3.2
433.15 K, 5500 kPa | 623.89 ± 3.3
433.15 K, 7000 kPa | 644.7 ± 3.5
433.15 K, 8500 kPa | 664.54 ± 3.6
433.15 K, 10000 kPa | 683.41 ± 3.6
443.15 K, 540 kPa | 511.92 ± 2.9
